Data on 1 compound can be found in BindingDB's records for doi:10.1021/jm301144g (Human Biomolecular Research Institute, 2012).

Molecules are shown by their SMILES. pIC50: −log10 of the molar value.

The test concerns the target TGF-beta receptor type-2 (Homo sapiens, UniProt P37173). In words: Inhibition of TGBR2 signaling in human HEK293T cells assessed as inhibition of SMAD activation after 2 to 22 hrs by dual Luciferase Assay.

TGF-beta receptor type-2, sequence (P37173 whole entry): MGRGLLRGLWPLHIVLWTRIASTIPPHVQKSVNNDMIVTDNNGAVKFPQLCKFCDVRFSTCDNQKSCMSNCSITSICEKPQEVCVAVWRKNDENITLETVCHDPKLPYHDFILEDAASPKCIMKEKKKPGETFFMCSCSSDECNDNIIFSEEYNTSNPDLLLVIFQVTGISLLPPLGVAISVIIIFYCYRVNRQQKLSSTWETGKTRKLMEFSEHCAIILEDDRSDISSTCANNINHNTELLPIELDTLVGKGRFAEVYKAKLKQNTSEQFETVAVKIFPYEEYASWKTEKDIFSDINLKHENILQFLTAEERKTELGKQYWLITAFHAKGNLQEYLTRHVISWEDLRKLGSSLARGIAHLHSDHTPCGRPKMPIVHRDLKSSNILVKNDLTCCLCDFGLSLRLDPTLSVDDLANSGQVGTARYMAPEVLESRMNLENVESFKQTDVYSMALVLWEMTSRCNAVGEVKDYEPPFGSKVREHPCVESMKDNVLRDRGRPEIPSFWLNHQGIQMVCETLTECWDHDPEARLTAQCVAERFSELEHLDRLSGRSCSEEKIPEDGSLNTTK

For orientation: pIC50 means the IC50 on a negative log10 scale, so that one unit is a factor of ten. As for `CCOC(=O)C1=C(C)N=C2CC(C)(C)CC(=O)C2C1c1ccc(-c2ccccc2)cc1` (stereo unspecified), the pIC50 was 6.34.
